Laboratory results as given in patent US20240173317A1, “METHODS FOR TREATING PROGRESSIVE FAMILIAL INTRAHEPATIC CHOLESTASIS” (MIRUM PHARMACEUTICALS, INC., priority 2022, published 2024).

What was measured:
subjects with PFIC [1] = experiment: Treatment-emergent adverse events (TEAEs), MARCH-PFIC Phase 3 study; assay type: in vivo
Text: A TEAE can therefore be any unfavorable and unintended sign (including an abnormal laboratory finding), symptom, or disease temporally associated with the use of a medicinal (investigational) product, whether or not related to the medicinal (investigational) product (ICH Guidance E2A 1995). All TEAEs are collected from the time the informed consent is signed until the defined follow-up period. This includes events occurring during the screening phase of the study, regardless of whether or not study medication is administered.
A serious adverse event (SAE) is any untoward medical occurrence (whether considered to be related to study medication or not) that at any dose: 1) Results in death; 2) Is life-threatening; 3) Requires inpatient hospitalization or prolongation of existing hospitalization; 4) Results in persistent or significant disability/incapacity; or 5) Is an important medical event.
All SAEs (regardless of relationship to study) are collected from the time the subject signs the informed consent until the defined follow-up period and must be reported within 24 hours of the first awareness of the event.

subjects with PFIC [2] = experiment: Total and direct bilirubin, MARCH-PFIC Phase 3 study
Text: Estimates are from a mixed model for repeated measures (MMRM) with change from baseline as the dependent variable and fixed categorical effects of treatment group, time period and treatment-by-time period interaction as well as the continuous fixed covariates of average baseline score and baseline score-by-time period interaction. […] Average of time periods Weeks 15-18, 19-22, and 2326 obtained from the MMRM as an equally weighted average of the 3 individual visit-specific estimates.
Methods: MARCH enrolled patients with a genetic diagnosis of PFIC, pruritus, and elevated sBA. Patients were randomized to MRX 57011 g/kg BID or placebo (PBO) for 26 weeks. Changes were determined as the difference between MRX and PBO groups for Change from Baseline (CFB) to the average of the final 3 measurements (Weeks 18, 22 and 26) using a mixed-effects model with recurrent measurements. Total/direct bilirubin (TB/DB) categories were defined as normal (≤1.2/0.3 mg/dL) or abnormal (>1.2/0.3 mg/dL).

subjects with PFIC [3] = experiment: Total serum bile acid (sBA) level, MARCH-PFIC Phase 3 study; assay type: in vivo, human; conditions: for percentage of sBA response (sBA responders): Week 18 to Week 26
Procedure: Serum bile acids and other cholestasis biomarkers. Blood samples were collected as described in Table 1 to measure levels of cholestasis biomarkers including total sBA, sBA subspecies, C4, FGF-19, and autotaxin as well as liver related parameters. Subjects were encouraged to fast at least 6 hours prior to collection (water intake was permitted if necessary but not recommended). Total sBA and targeted bile acid subspecies were quantified with liquid chromatography mass spectrometry (LC-MS) methodology for exploratory assessments. In addition, screening total sBA will be assessed with an enzymatic assay for inclusion criteria evaluation. C4, a key intermediate in the pathway for bile acid synthesis from cholesterol, will be determined by a validated LC-MS/MS method. The secondary efficacy endpoints are defined as Mean change in total serum bile acid (sBA) level between baseline and average of Weeks 18, 22, and 26 (FIGS. 11-12); 2) Percentage of ItchRO(Obs) responders from Week 15 to Week 26 (FIGS. 13A and 14A); 3) Percentage of sBA responders from Week 18 to Week 26 (FIGS. 13B and 14B). Pruritus responders are defined as a subject having a 4-week average morning ItchRO (Obs) severity change from baseline of […] OR an average severity score of ≤1.0. For the purpose of determining response, the average severity score from the three 4-week periods (weeks 15-18, 19-22 and 23-26) are used. A subject is defined as an ItchRO non-responder if the 4-week average baseline score is missing OR all three 4-week average (post-baseline) scores are missing. sBA responders are defined as a subject having an average sBA level of <102 μmon (applies only if baseline sBA was ≥102 μmon) OR a ≤−75% average percent change from baseline. For the purpose of determining response, the average sBA value from Weeks 18, 22 and 26 values are used. A subject is defined as an sBA non-responder if the baseline sBA value is missing OR sBA values are missing at all 3 time points (i.e., Weeks 18, 22, and 26). p-values comparing maralixibat to placebo treatment groups are calculated using Barnard's exact test.

participants with ALGS = experiment: TEAEs in participants with ALGS aged 16 years and older; assay type: in vivo, human
Text: The efficacy and safety of MRX in participants with ALGS aged ≥16 years transitioning to adult care and participant aged ≥16 years who initiate MRX treatment were studied (FIG. 30). The median (min, max) duration of therapy for participants who initiated MRX at <16 years of age was 4.1 years (1.5, 5.9), with the oldest patient taking MRX (Table 13). Three participants began MRX at ≥16 years of age and were followed for a median of 3.8 years.

[4] = Height and weight Z-score, MARCH-PFIC Phase 3 study; assay type: in vivo, human; conditions: BSEP deficiency group and PFIC group vs placebo
[5] = MARCH, all PFIC cohorts, Maralixibat (n = 47)
[6] = MARCH, all PFIC cohorts, Maralixibat (n = 47), listed as Maralixibat
[7] = among the 8 participants receiving MRX who had transaminase elevations
[8] = BSEP deficiency cohort, FIG. 20A
[9] = BSEP deficiency cohort, FIG. 22A
[10] = MRX group, post-hoc analysis, FIG. 38A-B
[11] = individuals with abnormal Baseline bilirubin, FIG. 37B
[12] = All PFIC cohort, average of Weeks 18, 22, 26, FIG. 11B
[13] = BSEP deficiency cohort, average of Weeks 18, 22, 26, FIG. 11A
[14] = ALGS, aged <16 y at MRX initiation (n = 11), After 16 y
[15] = ALGS, aged <16 y at MRX initiation (n = 11), Before 16 y
[16] = ALGS, aged >16 y at MRX initiation (n = 3)

CCCCC1(CCCC)CS(=O)(=O)c2ccc(N(C)C)cc2[C@@H](c2ccc(OCc3ccc(C[N+]45CCN(CC4)CC5)cc3)cc2)[C@H]1O [maralixibat, 1-(4-((4-((4R,5R)-3,3-dibutyl-7-(dimethylamino)-4-hydroxy-1,1-dioxido-2,3,4,5-tetrahydrobenzo[b]thiepin-5-yl)phenoxy)methyl)benzyl)-1,4-diazabicyclo[2.2.2]octan-1-ium]
median duration of diarrhea (subjects with PFIC [1]; MARCH): 5.5 days | patients who discontinued MRX due to transaminase elevation (subjects with PFIC [1]; MARCH): No patients | tolerability (subjects with PFIC [1]; MARCH): well-tolerated | Any TEAE, % (subjects with PFIC [1]; [5]): (100%) | Diarrhoea related to study drug, % (subjects with PFIC [1]; [5]): (27.7%) | GI disorders (most common TEAEs), % (subjects with PFIC [1]; [5]): 74.5% | GI events potentially related to study drug, % (subjects with PFIC [1]; [5]): (29.8%) | Grade 3/4 TEAE, % (subjects with PFIC [1]; [5]): (6.4%) | Serious TEAE (SAE), % (subjects with PFIC [1]; [5]): 10.6% | TEAE leading to discontinuation, % (subjects with PFIC [1]; [5]): (2.1%) | TEAE potentially related to study drug, % (subjects with PFIC [1]; [5]): (38.3%) | Serious TEAE (SAE), % (subjects with PFIC [1]; MARCH, all PFIC cohorts, Maralixibat (n = 47), listed as MRX): 10.6% | Diarrhoea, % (subjects with PFIC [1]; [6]): (57.4%) | Serious TEAE (SAE), % (subjects with PFIC [1]; [6]): (10.6%) | Constipation, % (subjects with PFIC [1]; MARCH, MRX (n = 47)): (8.5) % | Gastroenteritis, % (subjects with PFIC [1]; MARCH, MRX (n = 47)): (6.4) % | Haematochezia, % (subjects with PFIC [1]; MARCH, MRX (n = 47)): (6.4) % | Increased ALT, % (subjects with PFIC [1]; MARCH, MRX (n = 47)): (12.8) % | Vomiting, % (subjects with PFIC [1]; MARCH, MRX (n = 47)): (6.4) % | participants with resolution of the transaminase elevation without drug interruption (subjects with PFIC [1]; [7]): 6 | patients with ongoing stable transaminase elevation even after drug interruption or dose reduction (subjects with PFIC [1]; [7]): 2 | CFB in total bilirubin (TB) (subjects with PFIC [2]; All-PFIC cohort (MRX n = 33), average of Weeks 18, 22 and 26, FIG. 36A): -1.1 mg/dL | CFB in direct bilirubin (DB) (subjects with PFIC [2]; All-PFIC cohort (MRX n = 33), average of Weeks 18, 22 and 26, FIG. 36B): -0.8 mg/dL | TB group difference MRX vs PBO (subjects with PFIC [2]; All-PFIC cohort, average of Weeks 18, 22 and 26, FIG. 36A): 2.0 | DB group difference MRX vs PBO (subjects with PFIC [2]; All-PFIC cohort, average of Weeks 18, 22 and 26, FIG. 36B): 1.5 | difference in total bilirubin improvement vs placebo group (subjects with PFIC [2]; [8]): 1.585 mg/dL | improvement in (reduction of) total bilirubin relative to baseline (subjects with PFIC [2]; [8]): about 1.2 mg/dL | difference in direct bilirubin improvement vs placebo group (subjects with PFIC [2]; [9]): 1.196 mg/dL | improvement in (reduction of) direct bilirubin relative to baseline (subjects with PFIC [2]; [9]): over 0.8 mg/dL | TB normalized, patients / patients with abnormal Baseline values (subjects with PFIC [2]; [10]): 10/25 | patients who went from normal to abnormal TB (subjects with PFIC [2]; [10]): 0/7 | DB frequency of normalization (subjects with PFIC [2]; MRX group, post-hoc analysis, normal ≤0.3 mg/dL, FIG. 39): 38% | TB normalized, % of patients with abnormal Baseline values (subjects with PFIC [2]; MRX group, post-hoc analysis, normal ≤1.2 mg/dL, FIG. 38A-B): 40% | difference in total bilirubin improvement vs placebo group (subjects with PFIC [2]; PFIC cohort, FIG. 20B): 2.000 mg/dL | improvement in (reduction of) total bilirubin relative to baseline (subjects with PFIC [2]; PFIC cohort, FIG. 20B): about 1.2 mg/dL | difference in direct bilirubin improvement vs placebo group (subjects with PFIC [2]; PFIC cohort, FIG. 22B): 1.608 mg/dL | improvement in (reduction of) direct bilirubin relative to baseline (subjects with PFIC [2]; PFIC cohort, FIG. 22B): about 0.9 mg/dL | total bilirubin lower than baseline over time (subjects with PFIC [2]; Week 18 and later points in time, FIG. 21A-B): at least 1.0 mg/dL | direct bilirubin lower than baseline over time (subjects with PFIC [2]; Week 18 and later points in time, FIG. 23A-B): at least 1.0 mg/dL | CFB in direct bilirubin (DB) (subjects with PFIC [2]; [11]): -0.8 mg/dL | DB group difference MRX vs PBO (subjects with PFIC [2]; [11]): −1.8 | reduction of sBA levels (mean change from baseline) (subjects with PFIC [3]; [12]): over 150 μmon | sBA difference from placebo (subjects with PFIC [3]; [12]): 160.403 μmon | percentage of sBA response (sBA responders) (subjects with PFIC [3]; BSEP deficiency cohort, FIG. 13B): 35.7% | reduction of sBA levels (mean change from baseline) (subjects with PFIC [3]; [13]): ~200 µmol/L | sBA difference from placebo (subjects with PFIC [3]; [13]): 186.723 µmol/L | improvements in serum bile acid levels (subjects with PFIC [3]; FIC1, MDR3, TJP2, MYO5B cohorts, FIG. 34A-B): Significant improvements | reduction of sBA levels (mean change from baseline) (subjects with PFIC [3]; FIC1 cohort, FIG. 12A): ~100 µmol/L | sBA difference from placebo (subjects with PFIC [3]; FIC1 cohort, FIG. 12A): 126.382 µmol/L | percentage of sBA response (sBA responders) (subjects with PFIC [3]; FIG. 14B, sentence prints BSEP deficiency cohort): 45.5% | reduction of sBA levels (mean change from baseline) (subjects with PFIC [3]; MDR3 cohort, FIG. 12B): 150 μmon | sBA difference from placebo (subjects with PFIC [3]; MDR3 cohort, FIG. 12B): 135.089 μmon | sBA levels lower at each time point (change from baseline over time) (subjects with PFIC [3]; Week 2 to Week 26, BSEP deficiency group, PFIC group, all study participants, FIG. 15A-C): more than 100 μmon | improvements in serum bile acid levels (subjects with PFIC [3]; full-study population, FIG. 35B): statistically significant and clinically meaningful improvements | improvements in serum bile acid levels (subjects with PFIC [3]; patients with no-variant found, FIG. 35D): demonstrated improvements | tolerability (participants with ALGS; ALGS participants aged 16 years and older): generally well tolerated | Any TEAEs, % (participants with ALGS; [14]): (63.6) % | Gastrointestinal TEAEs: Abdominal pain, % (participants with ALGS; [14]): (18.2) % | Gastrointestinal TEAEs: Diarrhoea, % (participants with ALGS; [14]): (9.1) % | SAEs, % (participants with ALGS; [14]): (9.1) % | TEAEs > grade 3, % (participants with ALGS; [14]): (9.1) % | Treatment-related AEs, % (participants with ALGS; [14]): (18.2) % | Any TEAEs, % (participants with ALGS; [15]): (100) % | Gastrointestinal TEAEs: Abdominal pain, % (participants with ALGS; [15]): (45.5) % | Gastrointestinal TEAEs: Diarrhoea, % (participants with ALGS; [15]): (54.5) % | SAEs, % (participants with ALGS; [15]): (18.2) % | TEAEs > grade 3, % (participants with ALGS; [15]): (9.1) % | Treatment-related AEs, % (participants with ALGS; [15]): (81.8) % | Any TEAEs, % (participants with ALGS; [16]): (100) % | Gastrointestinal TEAEs: Diarrhoea, % (participants with ALGS; [16]): (33.3) % | TEAEs > grade 3, % (participants with ALGS; [16]): (33.3) % | Treatment-related AEs ≥ grade 3, % (participants with ALGS; [16]): (33.3) % | Treatment-related AEs, % (participants with ALGS; [16]): (66.7) % | change of participant height Z-score over time ([4]; FIG. 24A-C): overall positive trend for increase | change of participant weight Z-score over time ([4]; FIG. 25A-C): gained significantly more weight over time than placebo participants
